Patent US20100129515A1, “FLAVOUR MODULATING SUBSTANCES” (QUEST INTERNATIONAL SERVICES B.V., priority 2005, published 2010)

Tests used:
[1] = Taste of solutions in water (Example 7); type: in vivo
[2] = cited from earlier work; for taste: as a dry powder and as an alcoholic or aqueous solution; for pungency: compared with capsaicin
[3] = Tasting of toothpaste by professional panel (Example 13); type: in vivo
Description: 97 g of a toothpaste base was prepared as follows: 13.8 ml demineralised water, 0.1 g trisodium phosphate (12H2O) and 0.8 g sodium monofluorophosphate were weighed and mixed until clear. 50.0 g of sorbitol was added and the blend was mixed again. The obtained mixture was placed in a Fryma pot. A poly bag was placed in a suitable container and 8.0 g of precipitated silica AC30, 9.0 g of precipitated silica TC15, 0.8 g of sodium carboxymethylcellulose (SCMC 9M31XF) and 1.0 g of a colorant (Tiona (1700)) were weighed and placed in the bag in the order listed. The top of the bag was secured with a tag and the contents were thoroughly mixed to distribute the gum throughout the mixture.
This mixture was added to the Fryma pot. Then 7.0 ml of demineralised water, 1.5 g of sodium lauryl sulphate (Empicol LXV100C) and 5.0 g of PEG 1500 were placed in a beaker and heated to 45° C. and mixed with a Turrax to disperse the ingredients. The dispersion was placed on a magnetic stirrer until clear (while covered with cling film) and was subsequently added to the Fryma pot.
To this base toothpaste 0.8 g of a 25% saccharin soln was added. Part of the base toothpaste was then intensively mixed with N-vanillyl-N′-octyl urea (as obtained in Example 4) to obtain a 0.1 ppm concentration of N-vanillyl-N′-octyl urea (sample A). […]

[4] = Tasting of 0.6% NaCl / 0.03% MSG / 4 ppm pepper oleoresin solutions by professional panel (Example 11); type: in vivo
Description: Three solutions of 0.6% NaCl and 0.03% MSG and 4 ppm pepper oleoresin (ex Warner Jenkinson, St Louis, USA) were prepared.
To a first solution (sample A), 1 ppm N-vanillyl-N′-octyl urea was added To a second solution (sample B), 2 ppm N-vanillyl-N′-octyl thiourea was added.
(§1) Samples A and B and the reference sample were tasted by a professional panel.

[5] = Tasting of 0.6% NaCl / 0.03% MSG solutions by professional panel (Examples 9 and 10); type: in vivo
Description: Three solutions of 0.6% NaCl and 0.03% MSG were prepared.
To a first solution (sample A), 0.1 ppm N-vanillyl-N′-octyl urea was added To a second solution (sample B) 0.2 ppm N-vanillyl-N′-octyl thiourea was added.
as §1
To a first solution (sample A), 5 ppm N-vanillyl-N′-octyl urea was added To a second solution (sample B), 10 ppm N-vanillyl-N′-octyl thiourea was added.

[6] = Tasting of fondant with 2500 ppm menthol by professional panel (Example 8); type: in vivo
Description: Three samples of fondant were prepared by mixing 65% Fondacreme (ex Belgosuc NV Belgium) with 35% sugar syrup (67° Brix). 2500 Ppm menthol was added as a 50% solution in propylene glycol.
To a first sample (sample A), 0.1 ppm N-vanillyl-N′-octyl urea was added To a second sample (sample B), 0.2 ppm N-vanillyl-N′-octyl thiourea was added. Samples A, B and the reference sample were tasted by a professional panel. […] The cooling was perceived more through the whole oral cavity.

[7] = Tasting of 5% (w/w) ethanol solutions by trained flavourist panel (Example 2); type: in vivo; conditions: reference 5% (w/w) alcoholic solution
Description: The solid product obtained in example 1 was dissolved in ethanol/water (1:1, w/w) to prepare a 1000 ppm stock solution.
The following 3 alcoholic solutions are prepared: A: 1 ppm N-vanillyl urea as obtained in example 1
B: 10 ppm N-vanillyl urea as obtained in example 1
C: 100 ppm N-vanillyl urea as obtained in example 1
All solutions were tasted by a trained flavourist panel and compared to a 5% (w/w) alcoholic solution (the reference).

[8] = Tasting of 0.6% sodium chloride / 0.03% mono sodium glutamate solution by trained flavourist panel (Example 3); type: in vivo; conditions: 10 ppm in 0.6% sodium chloride, compared with solution A without substance
Description: 2 solutions were prepared containing respectively:
0.03% mono sodium glutamate
10 ppm N-vanillyl urea as described in example 1
Both solutions were tasted by a trained flavourist panel, which described the solutions as follows: […]

[9] = Tasting of 10 ppm menthol solution by trained flavourist panel (Example 4); type: in vivo; conditions: 1 ppm added to 10 ppm menthol solution; compared to the base
Description: 1 ppm N-vanillyl urea as described in example 1 was added to a 10 ppm menthol solution and compared to the base. Both solutions were tasted by a trained flavourist panel, which described the solutions as follows: […]

Compound: COc1cc(CNC(N)=S)ccc1O [N-vanillyl thiourea]
- taste of solution in water ([1]; 25 ppm in water): tingling, burning and slightly bitter taste and a weak vanillin-like flavour sensation
- taste [2]: tasteless

Compound: COc1cc(CNC(=S)Nc2ccc(C)cc2)ccc1O [p-tolylvanillyithiourea]
- pungency [2]: property of pungency but to a lesser degree than capsaicin

Compound: CCCCCCCCNC(=O)NCc1ccc(O)c(OC)c1 [N-vanillyl-N′-octyl urea, N-octyl-N′-vanillyl urea]
- cooling effect compared with the base toothpaste ([3]; 0.1 ppm in toothpaste): more aggressive cooling and more cooling volume in the oral cavity than the base
- hotness and overall impression compared to the reference sample ([4]; 1 ppm in 0.6% NaCl): clearly more hot than the reference sample and the overall impression is much stronger
- taste of solution in water ([1]; 1 ppm in water): strong tingling and burning taste
- onset of salt impression compared to the reference ([5]; 0.1 ppm in 0.6% NaCl): came faster than in the reference
- saltiness compared to the reference sample ([5]; 0.1 ppm in 0.6% NaCl): more salty compared to the reference sample
- duration of hotness ([5]; 5 ppm in 0.6% NaCl): up to 10 minutes
- onset of salt impression compared to the reference sample ([5]; 5 ppm in 0.6% NaCl): came faster than in the reference sample
- saltiness and hotness compared to the reference sample ([5]; 5 ppm in 0.6% NaCl): more salty and had a ‘clean’ and long lasting (up to 10 minutes) hotness compared to the reference sample
- cooling effect compared to the reference sample ([6]; 0.1 ppm in fondant with 2500 ppm menthol): more intense and long-lasting cooling effect compared to the reference sample

Compound: COc1cc(CNC(N)=O)ccc1O [N-vanillyl urea]
- taste compared to the reference ([7]; 1 ppm in 5% (w/w) ethanol): more alcohol-like bite than the reference
- taste compared to the reference ([7]; 10 ppm in 5% (w/w) ethanol): stronger hot, sharp and pungent, ethanol-like taste compared to the reference solution
- taste compared to the reference ([7]; 100 ppm in 5% (w/w) ethanol): stronger hot, sharp and pungent, ethanol-like taste compared to the reference solution
- taste description [8]: more salty, umami, warm, bite, preferred to A
- taste of solution in water ([1]; 50 ppm in water): slightly tingling taste and a weak vanillin-like flavour sensation
- taste description [9]: powerful and full cooling sensation, preferred to the base
- taste [2]: tasteless

Compound: o-tolylvanillylthiourea
- pungency [2]: property of pungency but to a lesser degree than capsaicin

Compound: phenylvanillylthiourea
- taste [2]: tasteless
- pungency [2]: property of pungency but to a lesser degree than capsaicin

Compound: CCCCCCCCNC(=S)NCc1ccc(O)c(OC)c1 [N-vanillyl-N′-octyl thiourea]
- hotness and overall impression compared to the reference sample ([4]; 2 ppm in 0.6% NaCl, relative to sample A): the same effects but slightly weaker
- salt effects compared to the reference sample ([5]; 0.2 ppm in 0.6% NaCl, relative to sample A): the same effects but slightly weaker
- salt and hotness effects compared to the reference sample ([5]; 10 ppm in 0.6% NaCl, relative to sample A): the same effects but slightly weaker
- cooling effect compared to the reference sample ([6]; 0.2 ppm in fondant with 2500 ppm menthol, relative to sample A): the same effects but slightly weaker

Compound: CCNC(=O)C1CC(C)CCC1C(C)C (stereo not drawn) [WS-3, reference compound]
- cooling effect compared with the base toothpaste ([3]; 10 ppm in toothpaste): in between sample A and the base in cooling strength
